The text below walks through data of patent US11708340B2, “Benzothia(di)azepine compounds and their use as bile acid modulators” (Albireo AB, priority 2019, dated 2023).

One test concerns the target T1, Human LBAT (Homo sapiens, UniProt Q14973).
T1 construct: expressed in transfected cells; Geneticin selection
T1 sequence (Q14973 1-349): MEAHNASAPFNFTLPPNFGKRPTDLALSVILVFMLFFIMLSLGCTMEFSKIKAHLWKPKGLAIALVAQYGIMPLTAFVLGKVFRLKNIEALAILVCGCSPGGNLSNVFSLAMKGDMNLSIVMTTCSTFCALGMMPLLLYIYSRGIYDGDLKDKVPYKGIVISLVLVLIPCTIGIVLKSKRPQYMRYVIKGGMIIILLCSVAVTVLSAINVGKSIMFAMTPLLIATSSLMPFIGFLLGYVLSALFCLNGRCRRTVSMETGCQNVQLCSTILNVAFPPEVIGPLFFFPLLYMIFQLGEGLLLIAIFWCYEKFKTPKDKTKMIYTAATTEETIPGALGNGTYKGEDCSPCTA
The test can be described thus: LBAT (h/m) assay, human LBAT-overexpressing cells, 3H-taurocholic acid uptake. Format: cell-based. The conditions noted are these: 0.3 μM 3H-taurocholic acid and 7.5 μM cold taurocholic acid, 20 minutes, read-out: hLBAT IC50. The protocol: 20,000 cells (Human or Mouse LBAT-overexpressing cells) were seeded in 96-wells plate (Corning CLS3809) in 100 μL MEM-alpha medium (Gibco 12571-063) supplemented with 10% FBS (Gibco 10438026) containing Geneticin (Gibco 10131-027) (1 mg/mL) and incubated at 37° C. in 5% CO2 for 24 hours. After incubation, media was decanted from the wells and cells were washed two times with 300 μL of basal MEM-alpha medium (FBS-free). After decanting basal MEM-alpha medium each time, plates were tapped against paper towel to ensure maximum removal of residual media.
For human LBAT, incubation mix was prepared by adding test inhibitor dilutions (3-fold serial dilution in DMSO (Sigma D2650), 10 points) in MEM-alpha (without FBS) containing 0.3 μM 3H-taurocholic acid (ARC ART-1368) and 7.5 μM cold taurocholic acid (Sigma T4009) (maintaining 0.2% final DMSO concentration). For mouse LBAT, incubation mix was prepared by adding test inhibitor dilutions (3-fold serial dilution in DMSO, 10 points) in MEM-alpha (without FBS) containing 0.3 μM 3H-taurocholic acid and 25 μM cold taurocholic acid maintaining 0.2% final DMSO concentration).
50 μL of incubation mix containing test inhibitors was then added to the wells (in duplicate) and the plates were incubated for 20 minutes in a CO2 incubator at 37° C. After incubation, the reaction was stopped by keeping the plates on ice water mix for 2-3 minutes and then the incubation mix was aspirated completely from the wells. The wells were washed two times with 250 μL of chilled unlabeled 1 mM taurocholic acid dissolved in HEPES (Gibco 15630080)-buffered (10 mM) HBSS (Gibco 14175079) (pH 7.4). The plates were tapped against a paper towel after every wash to ensure maximum removal of blocking buffer.
100 μL of MicroScint-20 (PerkinElmer 6013621) was added to the wells and kept overnight at room temperature before reading the plates in TopCount NXT™ Microplate Scintillation and Luminescence Counter from PerkinElmer under 3H Test protocol (set at 120 seconds reading time per well, with normal plate orientation).
(§1) All test compounds were provided in powder form at room temperature. 10 mM DMSO stocks of the test compounds were prepared, aliquoted and stored at −20° C. From the 10 mM DMSO stock of the compounds, a 3-fold serial dilution in DMSO was prepared to get a total of 10 dilutions of the test compounds. 0.5 μL of this dilution in DMSO was added to 250 μL of FBS-free basal media containing 3H-taurocholic acid and cold taurocholic acid to prepare the incubation mixture.

Another test deals with T2, Human IBAT (Homo sapiens, UniProt Q12908).
T2 construct: expressed in transfected cells; Puromycin selection
T2 sequence (Q12908 1-348): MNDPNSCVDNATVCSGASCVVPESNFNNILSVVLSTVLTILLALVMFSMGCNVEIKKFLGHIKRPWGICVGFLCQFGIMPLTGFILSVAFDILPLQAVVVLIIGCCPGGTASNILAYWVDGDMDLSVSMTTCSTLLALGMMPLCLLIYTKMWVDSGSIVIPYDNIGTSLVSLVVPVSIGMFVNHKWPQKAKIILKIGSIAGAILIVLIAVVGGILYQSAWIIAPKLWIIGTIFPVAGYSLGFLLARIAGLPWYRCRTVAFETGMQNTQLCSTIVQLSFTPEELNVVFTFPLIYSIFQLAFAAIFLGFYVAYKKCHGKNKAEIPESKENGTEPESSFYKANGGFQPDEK
The test can be described thus: IBAT (h/m) assay, human IBAT-overexpressing cells, 3H-taurocholic acid uptake. In kind it is cell-based. The conditions noted are these: highest test concentration 10 μM, 20 minutes, read-out: hIBAT IC50. The protocol: 10,000 cells (Human or Mouse IBAT-overexpressing cells) were seeded in 96-wells plate (Corning CLS3809) in 200 μL MEM-alpha medium (Gibco 12571-063) supplemented with 10% FBS (Gibco 10438026) containing Puromycin (Gibco A1113803) (10 μg/mL) and incubated at 37° C. in 5% CO2 for 48 hours. After incubation, media was decanted from the wells and cells were washed two times with 300 μL of basal MEM-alpha medium (FBS-free). After decanting basal MEM-alpha medium each time, plates were tapped against paper towel to ensure maximum removal of residual media. Test inhibitor dilutions (highest test concentration being 10 μM, 3-fold serial dilution, 10 points) prepared in DMSO (Sigma D2650) were added in incubation mix (maintaining 0.2% final DMSO concentration) containing 0.25 μM 3H-taurocholic acid (ARC ART-1368) and 5 μM of cold taurocholic acid (Sigma T4009). 50 μL of incubation mix containing test inhibitors was then added to the wells (in duplicate) and the plates were incubated for 20 minutes in a CO2 incubator at 37° C. After incubation, the reaction was stopped by keeping the plates on ice water mix for 2-3 minutes and then the incubation mix was aspirated completely from the wells. The wells were washed two times with 250 μL of chilled unlabeled 1 mM taurocholic acid dissolved in HEPES (Gibco 15630080)-buffered (10 mM) HBSS (Gibco 14175079) (pH 7.4). The plates were tapped against a paper towel after every wash to ensure maximum removal of blocking buffer.
100 μL of MicroScint-20 (PerkinElmer 6013621) was added to the wells and kept overnight at room temperature before reading the plates in TopCount NXT™ Microplate Scintillation and Luminescence Counter from PerkinElmer under 3H Test protocol (set at 120 seconds reading time per well).
as §1

Bounds are passed on as bounds.

For orientation: IC50 means the midpoint of a concentration-inhibition curve. As for `CCC1CN(c2ccccc2)c2cc(SC)c(O/C=C(\F)C(=O)O)cc2S(=O)(=O)C1` (stereo not drawn) [Example 7, (Z)-3-((3-ethyl-7-(methylthio)-1,1-dioxido-5-phenyl-2,3,4,5-tetrahydro-1,5-benzothiazepin-8-yl)oxy)-2-fluoroacrylic Acid], the IC50 at Human LBAT was found to be 73 nM.
As for `CCCC[C@@H]1CN(c2ccc(F)cc2)c2cc(SCC)c(O/C=C/C(=O)O)cc2S(=O)(=O)N1C` (single isomer, unassigned) [Example 25], on Human LBAT, the IC50 amounted to 267 nM.
`CCCC[C@H]1CN(c2ccc(F)cc2)c2cc(SC)c(O/C=C/C(=O)O)cc2S(=O)(=O)N1C` (single isomer, unassigned) [Example 21]: the results for the IC50 at Human LBAT and at Human IBAT were 3 nM and 644 nM, respectively.
Regarding `CCCCC1CN(c2ccccc2)c2cc(SC)c(O/C=C(\F)C(=O)O)cc2S(=O)(=O)N1C` (stereo not drawn) [Example 11, (Z)-3-((3-butyl-2-methyl-7-(methylthio)-1,1-dioxido-5-phenyl-2,3,4,5-tetrahydro-1,2,5-benzothiadiazepin-8-yl)oxy)-2-fluoroacrylic Acid], the IC50 stood at 1.1 nM at Human LBAT and 830 nM at Human IBAT.
On to `CCCCC1CN(c2ccccc2)c2cc(SC)c(O/C=C/C(=O)O)cc2S(=O)(=O)N1C` (racemic) [Example 14, (E)-3-((3-butyl-2-methyl-7-(methylthio)-1,1-dioxido-5-phenyl-2,3,4,5-tetrahydro-1,2,5-benzothiadiazepin-8-yl)oxy)acrylic Acid], for which the 50% inhibitory concentration (IC50) at Human LBAT worked out at 3.4 nM.
With `CCCC[C@@H]1CN(c2ccc(F)cc2)c2cc(SC)c(O/C=C/C(=O)O)cc2S(=O)(=O)C1` (single isomer, unassigned) [Example 28], the figures for the IC50 at Human LBAT and at Human IBAT were 1.9 nM and over 3330 nM, respectively.
Consider `CCC1CN(c2ccccc2)c2cc(SC)c(O/C=C/C(=O)O)cc2S(=O)(=O)C1` (stereo not drawn) [Example 8, (E)-3-((3-ethyl-7-(methylthio)-1,1-dioxido-5-phenyl-2,3,4,5-tetrahydro-1,5-benzothiazepin-8-yl)oxy)acrylic Acid], for which the IC50 on Human LBAT was found to be 242 nM.
As for `CCCC[C@@H]1CN(c2ccccc2)c2cc(SCC)c(O/C=C/C(=O)O)cc2S(=O)(=O)N1C` (single isomer, unassigned) [Example 19], the IC50 was 70 nM at Human LBAT and over 10000 nM on Human IBAT.
Consider `CCCC[C@H]1CN(c2ccccc2)c2cc(SC)c(O/C=C(\F)C(=O)O)cc2S(=O)(=O)C1` (single isomer, unassigned) [Example 5], for which, at Human LBAT, the IC50 turned out to be 28 nM.
Same read-out and setting: under `CCCC[C@@H]1CN(c2ccccc2)c2cc(SC)c(O/C=C/C(=O)O)cc2S(=O)(=O)C1` (single isomer, unassigned) [Example 2] stands 469 nM.
Regarding `CCCCC1CN(c2ccc(F)cc2)c2cc(SCC)c(O/C=C/C(=O)O)cc2S(=O)(=O)C1` (stereo not drawn) [Example 32, (E)-3-((3-Butyl-7-(ethylthio)-5-(4-fluorophenyl)-1,1-dioxido-2,3,4,5-tetrahydro-1,5-benzothiazepin-8-yl)oxy)acrylic Acid], the 50% inhibitory concentration (IC50) on Human IBAT was over 10000 nM.
`CCCCC1CN(c2ccc(F)cc2)c2cc(SC)c(O/C=C/C(=O)O)cc2S(=O)(=O)N1C` (racemic) [Example 20, (E)-3-((3-butyl-5-(4-fluorophenyl)-2-methyl-7-(methylthio)-1,1-dioxido-2,3,4,5-tetrahydro-1,2,5-benzothiadiazepin-8-yl)oxy)acrylic Acid]: the IC50 on Human LBAT worked out at 4.5 nM; at Human IBAT, 1150 nM.
The matching figures for `CCCCC1CN(c2ccccc2)c2cc(SCC)c(O/C=C/C(=O)O)cc2S(=O)(=O)C1` (stereo not drawn) [Example 30, (E)-3-((3-Butyl-7-(ethylthio)-1,1-dioxido-5-phenyl-2,3,4,5-tetrahydro-1,5-benzothiazepin-8-yl)oxy)acrylic Acid]: 9.5 nM and over 10000 nM.
As for `CCCCC1CN(c2ccccc2)c2cc(SC)c(O/C=C/C(=O)O)cc2S(=O)(=O)N1` (stereo not drawn) [Example 9, (E)-3-((3-butyl-7-(methylthio)-1,1-dioxido-5-phenyl-2,3,4,5-tetrahydro-1,2,5-benzothiadiazepin-8-yl)oxy)acrylic Acid], on Human LBAT, the 50% inhibitory concentration (IC50) is 8.2 nM.
In the case of `CCCC[C@H]1CN(c2ccc(F)cc2)c2cc(SC)c(O/C=C/C(=O)O)cc2S(=O)(=O)C1` (single isomer, unassigned) [Example 27], the figures for the IC50 at Human LBAT and on Human IBAT were 354 nM and over 10000 nM, respectively.
Turning to `CCCC[C@H]1CN(c2ccccc2)c2cc(SC)c(O/C=C(\F)C(=O)O)cc2S(=O)(=O)N1C` (single isomer, unassigned) [Example 12], the IC50 on Human LBAT amounted to 78 nM.
As for `CCCC[C@@H]1CN(c2ccccc2)c2cc(SC)c(O/C=C/C(=O)O)cc2S(=O)(=O)N1C` (single isomer, unassigned) [Example 16], the IC50 on Human LBAT was 105 nM.
As to `CCCC[C@H]1CN(c2ccc(F)cc2)c2cc(SCC)c(O/C=C/C(=O)O)cc2S(=O)(=O)N1C` (single isomer, unassigned) [Example 24], the half-maximal inhibitory concentration (IC50) turned out to be 0.34 nM on Human LBAT and 265 nM at Human IBAT.
`CCCCC1CN(c2ccccc2)c2cc(SCC)c(O/C=C/C(=O)O)cc2S(=O)(=O)N1` (stereo not drawn) [Example 31, (E)-3-((3-Butyl-7-(ethylthio)-1,1-dioxido-5-phenyl-2,3,4,5-tetrahydro-1,2,5-benzothiadiazepin-8-yl)oxy)acrylic Acid]: the concentration for half-maximal inhibition (IC50) on Human IBAT was over 10000 nM.
Take `CCCCC1CN(c2ccccc2)c2cc(SCC)c(O/C=C/C(=O)O)cc2S(=O)(=O)N1C` (racemic) [Example 17, (E)-3-((3-butyl-7-(ethylthio)-2-methyl-1,1-dioxido-5-phenyl-2,3,4,5-tetrahydro-1,2,5-benzothiadiazepin-8-yl)oxy)acrylic Acid]: the half-inhibitory concentration (IC50) at Human LBAT came to 2.3 nM.
Take `CCCCC1CN(c2ccc(F)cc2)c2cc(SC)c(O/C=C/C(=O)O)cc2S(=O)(=O)C1` (racemic) [Example 26, (E)-3-((3-butyl-5-(4-fluorophenyl)-7-(methylthio)-1,1-dioxido-2,3,4,5-tetrahydro-1,5-benzothiazepin-8-yl)oxy)acrylic Acid]: the results for the IC50 on Human LBAT and on Human IBAT were 8.7 nM and over 10000 nM, respectively.
